{
  "source": "paper PMC4942819",
  "about": "(Scientific Reports, 2016)",
  "key": {"[1]": {"system": "Mycobacterium tuberculosis H37Rv", "assay": "microplate Alamar blue assay (MABA), MIC", "format": "cell-based", "settings": "replicating H37Rv"}, "[2]": {"system": "Mycobacterium avium", "assay": "microdilution plate assay, MIC", "format": "cell-based"}, "[3]": {"system": "Mycobacterium tuberculosis H37Ra (ATCC 25177)", "assay": "microplate Alamar Blue assay (MABA), MIC, H37Ra", "format": "cell-based", "method": "Compound MIC was conducted by ShangHai Chempartner Co., Ltd (Shanghai, China) using the microplate Alamar Blue assay (MABA) against Mycobacterium tuberculosis H37Ra (ATCC 25177). Cytotoxicity of tested compounds was assessed on Vero cells."}, "[4]": {"assay": "pharmacokinetic study in SD rats", "format": "in vivo", "settings": "female, rat, plasma, SD rats", "method": "All animal experiments have been approved by the Institutional Animal Care and Treatment Committee of Sichuan University in China and were carried out in accordance with the approved guidelines. SPF female SD rats weighing 180–220 g were used in the pharmacokinetic study. The rats were fasted overnight before dosing. Every treatment group contain 3 rats. Rats were dosed with SKLB-TB1001 or BTZ043 suspension at 5 mg/kg (i.v. and p.o.). Compounds were dissolved in 5% DMSO/10% Solutol HS15 in saline for intravenous injection and suspended in 0.5% CMC for oral administration. Blood was collected from the jugular vein of each animal at the following times after administration of drugs: 0.083, 0.25, 0.5, 1, 2, 4, 6, 8 and 24 h after a single i.v. dosing; and 0.25, 0.5, 1, 2, 4, 6, 8 and 24 h after a single oral dosing. All blood samples were centrifuged at 3000 r/min for 10 min to obtain serum which was then stored at −20 °C. 150 μL of the serum was added to 500 μL of acetonitrile and the mixture was centrifuged at 13000 r/min for 10 min to remove protein. The supernatant was dried and dissolve in 100 μL of acetonitrile, the solution was centrifuged at 13000 r/min for 10 min. The supernatant was moved to a sample bottle for HPLC analysis. Total area under the concentration time curve (AUC), the elimination half-time (t1/2), the peak concentration (Cmax) and the time to reach peak concentration (Tmax) of samples were determined directly from the experimental data using WinNonlin V6.2.1."}, "[5]": {"assay": "plasma protein binding", "format": "in vitro ADME", "settings": "mouse, (M), read-out: Plasma protein binding (converted)", "method": "(§1) The In vitro ADME/T assays were conducted at WuXi AppTec Co. Ltd.(Shanghai). ClogP was calculated with ChemDraw Ultra 14.0. In the study of bi-directional permeability across MDR1-MDCKII cell monolayer, permeability was correlated with the apparent permeability coefficient Papp (cm/s), which was interpreted as follows: Low permeability( Papp ≤ 1.0×10^-6 cm/s), Moderate permeability(1.0×10^-6 < Papp < 5.5×10^-6 cm/s) or High permeability( Papp ≥ 5.5×10^-6 cm/s). ^aaqueous solubility at room temperature."}, "[6]": {"assay": "in vivo acute toxicity study", "design": "species or system BALB/c mice; AST: unit not given here", "settings": "for ALB / ALP / AST / BUN / CHOL / TP: 1 g/kg i.p., 2 weeks, Mean ± SE, n = 5", "method": "All animal experiments have been approved by the Institutional Animal Care and Treatment Committee of Sichuan University in China and were carried out in accordance with the approved guidelines. 20 BALB/c mice in both sexes were administered with SKLB-TB1001 CMC suspension at 1 g/kg by intraperitoneal injection, control mice remained untreated. Animals were continuously observed for 24 hours after administration. In each group, numbers of deaths and general behavior were recorded within 2 weeks, LD50 values were calculated. 2 weeks later, animals were sacrificed, blood samples were collected from the eye vein for biochemical and hematological tests. The organs and tissues of animals were removed and fixed in 10% formalin and embedded in paraffin for histological evaluation."}, "[7]": {"system": "Mycobacterium tuberculosis Erdman", "assay": "microplate Alamar blue assay (MABA), MIC", "format": "cell-based"}, "[8]": {"system": "A549 cells", "assay": "cytotoxicity, MTT assay", "format": "cell-based", "settings": "Homo sapiens", "method": "(§2) The compounds were examined for toxicity (IC50) using MTT assay. Briefly, cells (3 ~ 5 × 10^3 cells/well) were seeded in a 96-well plate. After 24 h incubation, the cells were treated with various concentrations of drugs for 24, 48, 72 h, respectively. Columns one and two in the assay plates contained-media +0.1% DMSO for a negative control ,Then, 20 μl of a 5 mg/mL MTT solution was added to each well, and the plates were incubated for an additional 2~4 h at 37 °C. The medium was subsequently discarded, and DMSO 150 μL was added to dissolve the formazan. Oscillate 15 min, the OD 570 was measured using a Spectra MAX M5 microplate spectrophotometer (Molecular Devices, CA, USA), and the IC50 values were calculated."}, "[9]": {"system": "J774A.1 cells", "assay": "cytotoxicity, MTT assay", "format": "cell-based", "settings": "Mus musculus, J774.A1", "method": "as §2"}, "[10]": {"system": "MDR1", "assay": "bi-directional permeability across MDR1-MDCKII cell monolayer", "format": "in vitro ADME", "settings": "dog, MDCK-MDR1; MDR1-MDCKII", "method": "as §1"}},
  "data": [
    {"smiles": "O=[N+]([O-])c1cc(C(F)(F)F)cc2c(=S)nc(N3CCC4(CC3)OCCO4)sc12", "note": "[SKLB-TB1001, 8-nitro-2-(1,4-dioxa-8-azaspiro[4.5]decan-8-yl)-6-(trifluoromethyl)-4H-benzo[e][1,3]thiazine-4-thione]", "values": [
      {"measurement": "MIC", "setting": "[1]", "result": 0.02, "unit": "µg/mL"},
      {"measurement": "MIC", "setting": "[2]", "result": 32, "unit": "µg/mL"},
      {"measurement": "MIC", "setting": "[3]", "result": "< 0.1", "unit": "µM"},
      {"measurement": "bioavailability", "setting": "[4]; oral, AUC (p.o., 5 mg/kg)/AUC(i.v., 5 mg/kg), read-out: F, absolute oral bioavailability", "result": 44.4, "unit": "%"},
      {"measurement": "half-life", "setting": "[4]; po, 5 mg/kg, terminal half-life for elimination", "result": 1.45, "unit": "h"},
      {"measurement": "AUC", "setting": "[4]; po, p.o., 5 mg/kg, t = 0 to infinity, read-out: AUC", "result": 847, "unit": "ng·h/mL"},
      {"measurement": "Tmax", "setting": "[4]; po, p.o., 5 mg/kg, read-out: Tmax", "result": 1.13, "unit": "h"},
      {"measurement": "Cmax", "setting": "[4]; po, p.o., 5 mg/kg, read-out: Cmax", "result": 193, "unit": "ng/mL"},
      {"measurement": "fraction unbound", "setting": "[5]", "result": 0.038},
      {"measurement": "death in acute single dose toxicity studies", "setting": "[6]; BALB/c mice, 1 g/kg, 14 days", "result": "no death"},
      {"measurement": "pathological changes in heart, liver, lung, kidneys and spleen", "setting": "[6]; BALB/c mice, 1 g/kg, 14 days", "result": "No observable pathological changes"},
      {"measurement": "maximum non-toxic dose", "setting": "[6]; BALB/c mice, single dose, intraperitoneal", "result": "greater than 1 g/kg"},
      {"measurement": "ALB", "setting": "[6]; Female Treatment", "result": "32.18 ± 0.65", "unit": "g/L"},
      {"measurement": "ALP", "setting": "[6]; Female Treatment", "result": "162.00 ± 4.70", "unit": "U/L"},
      {"measurement": "AST", "setting": "[6]; Female Treatment", "result": "154.60 ± 5.57"},
      {"measurement": "BUN", "setting": "[6]; Female Treatment", "result": "7.06 ± 0.35", "unit": "mmol/L"},
      {"measurement": "CHOL", "setting": "[6]; Female Treatment", "result": "3.31 ± 0.08", "unit": "mmol/L"},
      {"measurement": "TP", "setting": "[6]; Female Treatment", "result": "68.56 ± 1.42", "unit": "g/L"},
      {"measurement": "ALB", "setting": "[6]; Male Treatment", "result": "32.84 ± 0.44", "unit": "g/L"},
      {"measurement": "ALP", "setting": "[6]; Male Treatment", "result": "159.20 ± 6.98", "unit": "U/L"},
      {"measurement": "AST", "setting": "[6]; Male Treatment", "result": "153.40 ± 4.30"},
      {"measurement": "BUN", "setting": "[6]; Male Treatment", "result": "7.10 ± 0.60", "unit": "mmol/L"},
      {"measurement": "CHOL", "setting": "[6]; Male Treatment", "result": "3.31 ± 0.07", "unit": "mmol/L"},
      {"measurement": "TP", "setting": "[6]; Male Treatment", "result": "68.38 ± 1.58", "unit": "g/L"},
      {"measurement": "MIC", "setting": "[7]", "result": "< 0.05", "unit": "µg/mL"},
      {"measurement": "IC50", "setting": "[8]", "result": "> 100", "unit": "µg/mL"},
      {"measurement": "IC50", "setting": "[9]", "result": "> 32", "unit": "µg/mL"},
      {"measurement": "Papp A→B", "setting": "[10]", "result": 6.96, "unit": "×10⁻⁶ cm/s"},
      {"measurement": "Papp B→A", "setting": "[10]", "result": 7.27, "unit": "×10⁻⁶ cm/s"},
      {"measurement": "efflux ratio", "setting": "[10]", "result": 1.04}
    ]}
  ]
}
